Each structure is given as a SMILES string. Numbering of substitutions follows the chain as printed. Read-outs that look alike come from different tables or passages of the source.

The record followed here is article PMC12175894 (Science Advances, 2025).

For experiment [1], the target named is T1, 5-HT1AR F112^3.28W + M92^2.60F (Homo sapiens, UniProt P08908, F112W/M92F).
T1 sequence (P08908 1-422 M92F/F112W): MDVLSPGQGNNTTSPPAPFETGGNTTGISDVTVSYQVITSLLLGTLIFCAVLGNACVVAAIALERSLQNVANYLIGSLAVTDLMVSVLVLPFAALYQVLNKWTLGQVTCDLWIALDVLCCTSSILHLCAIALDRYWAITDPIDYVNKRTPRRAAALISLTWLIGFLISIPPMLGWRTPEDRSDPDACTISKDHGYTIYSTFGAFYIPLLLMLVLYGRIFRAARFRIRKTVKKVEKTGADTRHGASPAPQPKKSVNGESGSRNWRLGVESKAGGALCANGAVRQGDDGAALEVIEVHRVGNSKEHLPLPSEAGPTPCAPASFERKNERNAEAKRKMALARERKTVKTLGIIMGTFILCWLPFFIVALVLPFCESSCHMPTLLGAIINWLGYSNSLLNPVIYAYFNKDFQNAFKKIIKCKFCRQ
In words: GloSensor cAMP assay in HEK293A cells. It counts as cell-based.

In experiment [2] the target is T2, 5-HT1AR Q97^2.65A (Homo sapiens, UniProt P08908, Q97A).
T2 sequence (P08908 1-422 Q97A): T1 sequence (P08908 1-422 M92F/F112W) with F92M, Q97A, W112F
In words: GloSensor inhibition of cAMP accumulation in HEK293AΔGs. Type of experiment: cell-based. The settings on record: for Emax: read-out: Emax [% ± SEM], inhibition of cAMP accumulation.

For another experiment, the target named is T3, 5-HT1AR (Homo sapiens, UniProt P08908).
T3 sequence (P08908 1-422): T1 sequence (P08908 1-422 M92F/F112W) with F92M, W112F
Briefly: BRET-based cAMP assay (CAMYEL biosensor) in CHO-K1 cells. Type of experiment: cell-based.

In experiment [3] the target is T2, 5-HT1AR Q97^2.65A. Briefly: GloSensor cAMP accumulation in HEK293AΔGi/o. As to conditions: read-out: Emax [% ± SEM], cAMP accumulation. It counts as cell-based.
The target in experiment [4] is T4, 5-HT1AR F112^3.28W (Homo sapiens, UniProt P08908, F112W).
T4 sequence (P08908 1-422 F112W): T1 sequence (P08908 1-422 M92F/F112W) with F92M
In words: GloSensor cAMP assay in HEK293A cells. Type of experiment: cell-based.

Another experiment has as its target T5, 5-HT1AR Y96^2.64A (Homo sapiens, UniProt P08908, Y96A).
T5 sequence (P08908 1-422 Y96A): T1 sequence (P08908 1-422 M92F/F112W) with F92M, Y96A, W112F
In words: GloSensor inhibition of cAMP accumulation in HEK293AΔGs. Type of experiment: cell-based. As to conditions: for Emax: read-out: Emax [% ± SEM], inhibition of cAMP accumulation.

In experiment [5] the target is T4, 5-HT1AR F112^3.28W. Briefly: β-arrestin 2 recruitment, enhanced bystander BRET in HEK293T with GRK2. As to conditions: HEK-293T, read-out: Emax [% ± SEM], β-arrestin 2 recruitment.
A further experiment addresses T6, 5-HT1AR wildtype (Homo sapiens, UniProt P08908).
T6 construct: host or cells: HEK293T, HEK293A, HEK293AΔGs, HEK293AΔGi/o, HEK293AΔARRB1/B2
T6 sequence (P08908 1-422): T1 sequence (P08908 1-422 M92F/F112W) with F92M, W112F
The description is as above. Type of experiment: cell-based. As to conditions: HEK-293T; read-out: Emax [% ± SEM], β-arrestin 2 recruitment.

[6] abbreviates: HEK293-A, read-out: Emax [%±SEM], inhibition of cAMP accumulation.
Where [7] appears, read: HEK293-A; read-out: Emax [%±SEM], inhibition of cAMP accumulation.

As for `COc1ccccc1OCCNCCCOc1ccc2c(c1)NC(=O)CO2` [ST171], the Emax in experiment [1] (setting [6]) was 77 ± 5%; at 5-HT1AR Q97^2.65A [2], 79 ± 6%; at 5-HT1AR (CHO-K1, CAMYEL, PTX addition; read-out: Emax, cAMP effect in the presence of PTX), less than 5%; at 5-HT1AR (CHO-K1, read-out: Emax [%±SEM], inhibition of cAMP accumulation), 87 ± 1%; at 5-HT1AR Q97^2.65A [3], less than 5%; at 5-HT1AR F112^3.28W [4] (setting [6]), 77 ± 9%. The Emax on 5-HT1AR Y96^2.64A is 76 ± 2%; at 5-HT1AR F112^3.28W [5] it was less than 5%; at 5-HT1AR wildtype, less than 5%. Also, the EC50 in experiment [1] (HEK293A, GloSensor, F112W + M92F; read-out: EC50 left [nM±SEM], inhibition of cAMP accumulation) was 1.7 ± 0.4 nM; at 5-HT1AR Q97^2.65A [2] (HEK293AΔGs, Q97A, read-out: EC50 [nM ± SEM], inhibition of cAMP accumulation), 8 ± 0.9 nM; on 5-HT1AR (CHOK1, CAMYEL, wildtype; read-out: EC50 left [nM±SEM], inhibition of cAMP accumulation) it was 0.88 ± 0.3 nM; on 5-HT1AR F112^3.28W [4] (HEK293A, GloSensor, F112W; read-out: EC50 left [nM±SEM], inhibition of cAMP accumulation) it was 1.7 ± 0.5 nM; at 5-HT1AR Y96^2.64A (HEK293AΔGs, Y96A, read-out: EC50 [nM ± SEM], inhibition of cAMP accumulation), 14 ± 3.5 nM.

Take `Cc1ccc(CNCC2(F)CCN(C(=O)c3ccc(F)c(Cl)c3)CC2)nc1` [befiradol, reference compound]: the Emax in experiment [1] (setting [7]) is 92 ± 7%; at 5-HT1AR Q97^2.65A [2], 91 ± 7%; at 5-HT1AR (CHO-K1; read-out: Emax [%±SEM], inhibition of cAMP accumulation), 91 ± 3%; at 5-HT1AR Q97^2.65A [3], 60 ± 2%; at 5-HT1AR F112^3.28W [4] (setting [7]), 96 ± 4%; at 5-HT1AR Y96^2.64A, 104 ± 5%. Also, the Emax is 86 ± 3% at 5-HT1AR F112^3.28W [5] and 79 ± 1% on 5-HT1AR wildtype. Moreover, the “Esat [%±SEM], efficacy at saturating ligand concentrations” value at 5-HT1AR (CHOK1, CAMYEL; relative to serotonin maximum inhibition) was 65 ± 4%. In addition, the “Esat [%±SEM]” value on 5-HT1AR F112^3.28W [4] (HEK293A, GloSensor, F112W) is on record as 90 ± 4%.
